Data on 39 compounds can be found in patent US11485737B2, “Diaryl substituted 5,5-fused ring compounds as C5aR inhibitors” (CHEMOCENTRYX, INC., priority 2017, dated 2022).

The target of this test is T1, C5aR (Homo sapiens, UniProt P21730).
T1 construct: U937 cells are a monocytic cell line which express C5aR; host or cells: U937 cells (cAMP-treated overnight)
T1 sequence (P21730 1-350): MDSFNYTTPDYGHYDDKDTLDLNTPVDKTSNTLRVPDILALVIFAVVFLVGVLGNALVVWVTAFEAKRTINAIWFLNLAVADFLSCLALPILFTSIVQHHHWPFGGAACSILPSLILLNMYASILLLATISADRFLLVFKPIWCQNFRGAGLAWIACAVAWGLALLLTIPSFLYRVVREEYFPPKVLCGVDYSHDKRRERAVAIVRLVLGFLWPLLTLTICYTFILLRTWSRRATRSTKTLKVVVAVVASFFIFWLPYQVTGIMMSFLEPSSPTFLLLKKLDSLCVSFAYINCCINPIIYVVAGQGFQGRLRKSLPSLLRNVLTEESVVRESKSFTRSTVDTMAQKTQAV
As to the kind of experiment: Chemotaxis assay using U937 cells (C5a-induced migration). In kind it is cell-based. Particulars: chemotaxis (migration) of U937 cells towards C5a; read-out: Mig IC50. The method, then: U937 cells are a monocytic cell line which express C5aR, and are available from ATCC (VA). These cells were cultured as a suspension in RPMI-1640 medium supplemented with 2 mM L-glutamine, 1.5 g/L sodium bicarbonate, 4.5 g/L glucose, 10 mM HEPES, 1 mM sodium pyruvate, and 10% FBS. Cells were grown under 5% CO2/95% air, 100% humidity at 37° C. and subcultured twice weekly at 1:6 (cells were cultured at a density range of 1×10^5 to 2×10^6 cells/mL) and harvested at 1×10^6 cells/mL. Prior to assay, cells are treated overnight with 0.5 mM of cyclic AMP (Sigma, OH) and washed once prior to use. cAMP treated U937 cells can be used in C5aR ligand binding and functional assays.
Optionally, compounds may be further assayed for their ability to inhibit chemotaxis in cells. Chemotaxis assays are performed using 5 μm pore polycarbonate, polyvinylpyrrolidone-coated filters in 96-well chemotaxis chambers (Neuroprobe; Gaithersburg, Md.) using chemotaxis buffer (Hank's balanced salt solution (HBSS) and 1% FBS). C5aR ligands (i.e., C5a, R&D Systems; Minneapolis, Minn.) are use to evaluate compound mediated inhibition of C5aR mediated migration. Other chemokines (i.e., SDF-1α; R&D Systems; Minneapolis, Minn.) are used as specificity controls. The lower chamber is loaded with 29 μl of chemokine (i.e., 0.03 nM C5a) and varying amounts of compound; the top chamber contains 100,000 U937 or neutrophil cells in 20 μl. The chambers are incubated 1.5 hours at 37° C., and the number of cells in the lower chamber quantified either by direct cell counts in five high powered fields per well or by the CyQuant assay (Molecular Probes), a fluorescent dye method that measures nucleic acid content and microscopic observation.
The compounds in Table 1, below, were prepared using the methods described above. Characterization data is provided for each compound listed. Activity is provided as follows for the chemotaxis assay using U937 cells as described herein (Example 7): +, 500 nM<IC50; ++, 50 nM<IC50<500 nM; +++, 5 nM<IC50<50 nM; and ++++, IC50<5 nM.

On to `CCc1cccc(CC)c1-n1nc2c(c1-c1cc(Cl)c(NC(N)=O)cc1F)CN(Cc1ccc(C(F)(F)F)cc1C(F)(F)F)C2(C)C` [Compound 1.001, 1-(4-(5-(2,4-bis(trifluoromethyl)benzyl)-2-(2,6-diethylphenyl)-6,6-dimethyl-2,4,5,6-tetrahydropyrrolo[3,4-c]pyrazol-3-yl)-2-chloro-5-fluorophenyl)urea], for which the IC50 was under 5 nM.

Regarding `CCc1cccc(CC)c1-n1nc2c(c1-c1cc(OC)c(NC(N)=O)cc1F)CN(Cc1ccc(C(F)(F)F)cc1C(F)(F)F)C2(C)C` [Compound 1.002], the IC50 was under 5 nM.

Regarding `CCc1cccc(CC)c1-n1nc2c(c1-c1cc(C)c(NC(N)=O)cc1F)CN(Cc1ccc(C(F)(F)F)cc1C(F)(F)F)C2(C)C` [Compound 1.003], the IC50 was under 5 nM. On to `CCc1cccc(CC)c1-n1nc2c(c1-c1cc(F)c(NC(N)=O)cc1F)CN(CC(C)(C)C(F)(F)F)C2(C)C` [Compound 1.004, 1-(4-(2-(2,6-diethylphenyl)-6,6-dimethyl-5-(3,3,3-trifluoro-2,2-dimethylpropyl)-2,4,5,6-tetrahydropyrrolo[3,4-c]pyrazol-3-yl)-2,5-difluorophenyl)urea], for which the IC50 is under 5 nM. As for `CCc1cccc(CC)c1-n1nc2c(c1-c1ccc(C(N)=O)c(F)c1)CN(Cc1ccc(C(F)(F)F)cc1C(F)(F)F)C2(C)C` [Compound 1.005], the IC50 is over 500 nM. With `Cc1cccc(C)c1-n1nc2c(c1-c1cc(F)c(NC(N)=O)cc1F)CN(Cc1ccccc1C(F)(F)F)C2(C)C` [Compound 1.006] the figure was under 5 nM; with `Cc1cccc(C)c1-n1nc2c(c1-c1cc(F)c(NC(N)=O)cc1F)CN(Cc1ccc(C(F)(F)F)cc1C(F)(F)F)C2(C)C` [Compound 1.007], under 5 nM; with `CCc1cccc(CC)c1-n1nc2c(c1-c1cc(F)c(NC(N)=O)cc1C)CN(CC1(C)COC1)C2(C)C` [Compound 1.008], 5 to 50 nM. Consider `CCc1cccc(CC)c1-n1nc2c(c1-c1cc(F)c(NC(N)=O)cc1C)CN(Cc1ccccc1C(F)(F)F)C2(C)C` [Compound 1.009], for which the IC50 was under 5 nM.

Take `CCc1cccc(CC)c1-n1nc2c(c1-c1cc(F)c(NC(N)=O)cc1C)CN(Cc1ccc(C(F)(F)F)cc1C(F)(F)F)C2(C)C` [Compound 1.010]: the IC50 is under 5 nM. Take `CCc1cccc(CC)c1-n1nc2c(c1-c1cc(F)c(NC(N)=O)cc1F)CN(Cc1cc(Cl)ccc1Cl)C2(C)C` [Compound 1.011]: the IC50 is under 5 nM.

Take `CCc1cccc(CC)c1-n1nc2c(c1-c1cc(F)c(NC(N)=O)cc1F)CN(C(=O)CC(C)C)C2(C)C` [Compound 1.012]: the IC50 is under 5 nM. As for `CCc1cccc(CC)c1-n1nc2c(c1-c1cc(F)c(NC(N)=O)cc1F)CN(C(=O)C(C)CC)C2(C)C` (stereo not drawn) [Compound 1.013], the half-inhibitory concentration (IC50) is under 5 nM. As for `CCc1cccc(CC)c1-n1nc2c(c1-c1cc(F)c(NC(N)=O)cc1F)CN(Cc1ccccc1C(F)(F)F)C2(C)C` [Compound 1.014], the IC50 was under 5 nM. Consider `CCc1cccc(CC)c1-n1nc2c(c1-c1cc(F)c(NC(N)=O)cc1F)CN(CC1CCOCC1)C2(C)C` [Compound 1.015], for which the IC50 is under 5 nM.

Turning to `CCc1cccc(CC)c1-n1nc2c(c1-c1cc(F)c(NC(N)=O)cc1F)CN(C(=O)C(C)C)C2(C)C` [Compound 1.016, 1-(4-(2-(2,6-diethylphenyl)-5-isobutyryl-6,6-dimethyl-2,4,5,6-tetrahydropyrrolo[3,4-c]pyrazol-3-yl)-2,5-difluorophenyl)urea], the IC50 lay within 5 to 50 nM. With `CCc1cccc(CC)c1-n1nc2c(c1-c1cc(F)c(NC(N)=O)cc1F)CN(Cc1cc(C(F)(F)F)ccc1C(F)(F)F)C2(C)C` [Compound 1.017] the figure was under 5 nM; with `CCc1cccc(CC)c1-n1nc2c(c1-c1cc(F)c(NC(N)=O)cc1F)CN(Cc1ccc(C(F)(F)F)cc1C(F)(F)F)C2(C)C` [Compound 1.018], under 5 nM; with `Cc1cccc(C)c1-n1nc2c(c1-c1ccc(NC(N)=O)cc1)CN(CC(C)(C)C)C2(C)C` [Compound 1.019], 50 to 500 nM.

For `Cc1cccc(C)c1-n1nc2c(c1-c1ccc(C(N)=O)cc1)CN(c1ccc(C(F)(F)F)c(Cl)c1)C2=O` [Compound 1.020], the IC50 is over 500 nM.

On to `Cc1ccc(C(C)(C)C)cc1N1Cc2c(nn(-c3c(C)cccc3C)c2-c2ccc(NC(N)=O)cc2)C1=O` [Compound 1.021], for which the IC50 is over 500 nM.

`Cc1cccc(C)c1-n1nc2c(c1-c1ccc(NC(N)=O)cc1)CN(CC(C)(C)C)C2` [Compound 1.022]: the IC50 fell in the range of 50 to 500 nM. On to `Cc1cc(C(N)=O)ccc1-c1c2c(nn1-c1c(C)cccc1C)C(=O)N(c1cc(C(C)(C)C)ccc1C)C2` [Compound 1.023], for which the IC50 was in the range of 50 to 500 nM. Under `Cc1cc(-c2c3c(nn2-c2c(C)cccc2C)C(=O)N(c2cc(C(C)(C)C)ccc2C)C3)ccc1C(N)=O` [Compound 1.024] stands 5 to 50 nM; under `Cc1cc(-c2c3c(nn2-c2c(C)cccc2C)CN(c2cc(C(C)(C)C)ccc2C)C3=O)ccc1C(N)=O` [Compound 1.025], over 500 nM; under `Cc1cccc(C)c1-n1nc2c(c1-c1ccc(C(N)=O)cc1)CN(c1cccc(C(C)(C)C)n1)C2` [Compound 1.027], over 500 nM. For the compound `Cc1cccc(C)c1-n1nc2c(c1-c1ccc(C(N)=O)cc1)CN(c1cc(C(C)(C)C)ccn1)C2` [Compound 1.028], the IC50 is over 500 nM. Under `Cc1cccc(C)c1-n1nc2c(c1-c1ccc(NC(N)=O)cc1)CN(C(=O)OC(C)(C)C)C2` [Compound 1.029] stands over 500 nM.

Take `Cc1ccc(C(C)(C)C)cc1N1Cc2c(nn(-c3c(C)cccc3C)c2-c2ccc(C(N)=O)cc2)C1=O` [Compound 1.030]: the IC50 fell in the range of 5 to 50 nM.

Consider `Cc1ccc(C(C)(C)C)cc1N1Cc2nn(-c3c(C)cccc3C)c(-c3ccc(C(N)=O)cc3)c2C1=O` [Compound 1.031], for which the IC50 fell in the range of 5 to 50 nM. For `COc1cccc(C)c1-n1nc2c(c1-c1ccc(NC(N)=O)cc1)CN(C(=O)NC(C)(C)C)C2` [Compound 1.032], the IC50 is over 500 nM.

Turning to `Cc1cccc(C)c1-n1nc2c(c1-c1ccc(C(N)=O)cc1)CN(C(=O)NC(C)(C)C)C2` [Compound 1.033], the IC50 was over 500 nM. Under `Cc1cccc(C)c1-n1nc2c(c1-c1ccc(C(N)=O)cc1)CN(c1ccc(F)cc1C(C)C)C2` [Compound 1.034] stands 50 to 500 nM; under `Cc1cc(F)c(C(C)C)cc1N1Cc2nn(-c3c(C)cccc3C)c(-c3ccc(C(N)=O)cc3)c2C1` [Compound 1.035, 4-(2-(2,6-dimethylphenyl)-5-(4-fluoro-5-isopropyl-2-methylphenyl)-2,4,5,6-tetrahydropyrrolo[3,4-c]pyrazol-3-yl)benzamide], 5 to 50 nM; under `Cc1cccc(C)c1-n1nc2c(c1-c1ccc(C(N)=O)cc1)CN(C(=O)c1ccc(C(C)(C)C)cc1)C2` [Compound 1.036], over 500 nM. As to `Cc1cccc(C)c1-n1nc2c(c1-c1ccc(C(N)=O)cc1)CN(C(=O)c1ccccc1)C2` [Compound 1.037], the IC50 is over 500 nM. On to `Cc1cccc(C)c1-n1nc2c(c1-c1ccc(C(N)=O)cc1)CN(C(=O)OC(C)(C)C)C2` [Compound 1.038], for which the IC50 was over 500 nM. Take `Cc1ccc(N2Cc3nn(-c4c(C)cccc4C)c(-c4ccc(C(N)=O)cc4)c3C2)cc1C(F)(F)F` [Compound 1.039]: the IC50 was over 500 nM. With `Cc1cc(C(N)=O)ccc1-c1c2c(nn1-c1c(C)cccc1C)CN(c1cc(C(C)(C)C)ccc1C)C2` [Compound 1.040] the figure was 50 to 500 nM.
